Tests used:
[1] = Oral dosing in portal vein-cannulated rats, portal vein plasma; format: in vivo; settings: oral dosing of Example 2 (30 and 200 mg/kg), four-hour time period
[2] = test system: Mouse Collagen-Induced Arthritis (mCIA); assay: Therapeutic mouse collagen-induced arthritis (mCIA) model; format: in vivo, Male DBA/J mice; settings: Mus musculus; mice, dosing day 34 through day 49; read-out: Therapeutic mCIA (ED80 dose)
Excerpt: Mouse Collagen-induced arthritis is a commonly used chronic, preclinical model of rheumatoid arthritis in which joint swelling and bone destruction occur following immunization with type II collagen. Reduction of disease incidence and severity has been shown previously to be predictive of disease-modification and signs and symptoms mitigation, respectively, in a clinical setting.
In the therapeutic mCIA model, induction of disease incidence and severity was synchronized via LPS stimulation. Male DBA/J mice were immunized with 100 ug of bovine type II collagen (bCII) on day 0. All mice received an intraperitoneal injection of 20 μg of LPS on day 28 and disease was allowed to develop through day 34. At day 34, all mice had disease (incidence=100%) with an average severity score of seven. Dosing of compounds was initiated in the therapeutic mode on day 34 and continued through day 49. Different treatments were compared by measuring the decrease in incidence (i.e., resolution of disease) and the decrease in severity of paw swelling over time.

Serum osteocalcin = Serum osteocalcin suppression, 28-day repeat dose mouse model; format: in vivo, Swiss Webster female mice; settings: mice
Method: The compounds were weighed and suspended in a vehicle of 0.5% methylcellulose/0.025% tween 20 (Sigma-Aldrich, St. Louis, Mo.). Compound suspensions were homogenized using a Polytron PT-3100 tissue homogenizer to create a very fine suspension and were then sonicated for 10 minutes using a water bath sonicator. Aliquots of each suspension were made for daily dosing at 0.2 ml/dose. Swiss Webster female mice, 10-12 weeks old, 28-29 grams, (Taconic, Germantown, N.Y.) were used in accordance with the guidelines of the Institutional Animal Care and Use Committee and in accordance with NIH guidelines on laboratory animal welfare. Mice were acclimated in the Pfizer animal facility for three to seven days prior to being utilized in a study. […] Each treatment group contained 5-10 mice. To establish a dosing regimen for the studies, a pilot pharmacodynamic time course experiment was conducted to quantify TNFα repression after a single ED80 dose.
Body weights were measured on the first and last day of each experiment. Blood samples were obtained after three weeks of dosing for a steady-state pharmacokinetic (PK) analysis. To assess compound effects on LPS-induced TNFα, all mice received an intraperitoneal injection of LPS (Salmonella typhosa, L-7895; Sigma-Aldrich, St. Louis) 2.5 hr after the last dose on day 28. Mice were sacrificed 90 minutes after LPS administration. Serum samples were quantified for osteocalcin and TNFα using the multiplex assays (Linco Research, Inc, St. Charles, Mo.; Luminex 100, Austin, Tex.). Samples were diluted 1:20 and the assay was run according to manufacturer's instructions. The osteocalcin standard was purchased separately (Biomedical Technologies Inc., Stoughton, Mass.). Mice were fasted for 4 hours before serum was collected for TNFα, and osteocalcin levels. For each experiment, outliers were detected by calculating the number of standard deviations from the mean of the group. If the value being examined was more than 2.5 standard deviations from the mean, it was excluded from the rest of the calculations.
The individual mouse percent inhibition values were fit to a four-parameter logistic model using the dose mean for each group.
ED50 and ED80 values were obtained for the various endpoints using a four-parameter logistic fit. For compounds which were tested multiple times, ED50 and ED80 values were obtained using four-parameter logistic fits of the combined data from multiple experiments.

[3] = test system: house dust mite-induced BAL inflammatory cell influx; assay: House dust mite model of asthma, BAL inflammatory cell influx; format: in vivo, Mice; settings: 0.1, 1 and 10 mg/kg, p.o., b.i.d.
[4] = test system: Cortical bone formation rate (BFR); assay: Cortical bone histomorphometry, bone formation rate (BFR); format: in vivo; settings: AUC 0-4 hr, mice
Method: During the in-life portion of each study, mice received two intraperitoneal (i.p.) injections (20 mg/kg, […]) of calcein (C-0875; Sigma-Aldrich, St. Louis, Mo.) on days 1 and 26 for bone histomorphometry measurements. Calcein incorporates into the bone mineral and allows measurement of bone formation rate. Calcein was dissolved in 2% sodium bicarbonate. During the tissue harvest, the left tibiae were excised and cleaned for cortical histomorphometry measurements. After all skin and muscle were removed, tibiae were placed in 70% ethanol 4° C.) in the dark for a minimum of 24 hours.
Ground transverse sections were used for histomorphometric analysis of cortical bone. Bones were sectioned using a low-speed saw (Isomet, Buehler, Lake Bluff, Ill.) equipped with a diamond wafer blade. The end of each tibia was removed proximal to tibia-fibula synostosis and a […] cross-section was cut. Using a roughened glass plate and a cork, sections were ground to […] until transparent and all labels were distinguishable under a fluorescent microscope. Sections were dehydrated using the following solutions for a minimum of two minutes each: 1) 70% ethanol, 2) 95% ethanol, 3) 100% ethanol, 4) 50/50 ethanol/xylene, and 5) xylene (twice) (#534056; Sigma-Aldrich, St. Louis, Mo.). Sections were mounted using Eukitt Quick Mounting Medium (#03989, Sigma-Aldrich, St. Louis, Mo.) after which coverslip was applied. Using the Osteomeasure Bone Analysis Program (Osteometrics, Inc., Decatur, Ga.), bone formation rate was calculated by tracing the 1st and […] fluorescent labels and the inner and outer perimeter of the bone. Bone formation rate was calculated by the following equation: (Inter-label width/Label interval)*(Labeled perimeter/Bone perimeter). At least five samples were measured from each treatment group in each study.

- detection in portal vein plasma samples [1]: detection of Example 1
- Serum osteocalcin EAUC50 (Serum osteocalcin; AUC 0-4 hr): 1300 ng·h/mL
- Serum osteocalcin EAUC80 (Serum osteocalcin; AUC 0-4 hr): 4200 ng·h/mL
- Osteocalcin Suppression (ED80 dose) (Serum osteocalcin; oral gavage 28 days, serum osteocalcin): >10 mg/kg
- Cortical bone formation rate (BFR) EAUC50 [4]: 270 ng·h/mL
SMILES: Cc1ncccc1NC(=O)c1ccc2c(c1)CC[C@@H]1C[C@@](O)(C(F)(F)F)CC[C@@]21Cc1ccccc1 [Example 1, (4βS,7R,8αR)-4β-benzyl-7-hydroxy-N-(2-methylpyridin-3-yl)-7-(trifluoromethyl)-4β,5,6,7,8,8α,9,10-octahydrophenanthrene-2-carboxamide]
- ED80 [2]: < 2 mg/kg
- cell infiltration into BAL fluid [3]: mitigated cell infiltration into BAL fluid dose-dependently
